Laboratory results from ChEMBL document CHEMBL1153286, “Synthesis and biological evaluation of sulfonylurea and thiourea derivatives substituted with benzenesulfonamide groups as potential hypoglycemic agents” (Bioorg Med Chem Lett, 2009).
The source made the active and inactive calls. No cut-off for these calls is given here.

What was measured:
[1] = system: Adipocyte; assay: Effect on 2-deoxy-D-[1-3H]glucose transport in Sprague-Dawley rat adipocytes at 10 uM in presence of insulin by liquid scintillation counting; assay type: functional
[2] = Cmax in rat at 2.5 mg/kg, iv or 5 mg/kg, po; assay type: ADME, organism-based; details: in vivo
[3] = system: Adipocyte; assay: Effect on 2-deoxy-D-[1-3H]glucose transport in Sprague-Dawley rat adipocytes at 100 uM in presence of insulin by liquid scintillation counting; assay type: functional
[4] = system: Mus musculus; assay: Reduction of plasma glucose level in fasted C57BL/6J mouse at 20 mg/kg, po administered daily for 3 days measured on day 5 after 6 hrs by glucose oxidase trinder method; assay type: functional; parameters: scale not given: the % may be the effect or the level left
[5] = Effect on insulin release in rat pancreatic cells at 10 umol/L after 6 hrs by radioimmunoassay; assay type: functional
[6] = system: Adipocyte; assay: Effect on 2-deoxy-D-[1-3H]glucose transport in Sprague-Dawley rat adipocytes at 1 uM in absence of insulin by liquid scintillation counting; assay type: functional
[7] = system: Adipocyte; assay: Effect on 2-deoxy-D-[1-3H]glucose transport in Sprague-Dawley rat adipocytes at 10 uM in absence of insulin by liquid scintillation counting; assay type: functional
[8] = system: Adipocyte; assay: Effect on 2-deoxy-D-[1-3H]glucose transport in Sprague-Dawley rat adipocytes at 100 uM in absence of insulin by liquid scintillation counting; assay type: functional
[9] = system: Mus musculus; assay: Protection against collagen-epinephrine-induced mortality in Chinese Kunming cerebral thrombosis mouse model assessed as survival rate at 10 mg/kg, po administered once daily for 7 days measured on day 7 within 15 mins of collagen-epinephrine challenge; assay type: functional
[10] = system: Adipocyte; assay: Increase in glucose absorption in Sprague-Dawley rat adipocytes at 100 uM by liquid scintillation counting relative to basal level; assay type: functional
[11] = system: Mus musculus; assay: Protection against collagen-epinephrine-induced mortality in Chinese Kunming cerebral thrombosis mouse model assessed as survival rate at 20 mg/kg, po administered once daily for 7 days measured on day 7 within 15 mins of collagen-epinephrine challenge; assay type: functional
[12] = Clearance in rat at 2.5 mg/kg, iv or 5 mg/kg, po; assay type: ADME, organism-based; details: in vivo
[13] = Half life in rat at 2.5 mg/kg, iv; assay type: ADME, organism-based; parameters: dose 2.5 mg/kg, route intravenous; details: in vivo
[14] = Antiplatelet activity in human platelets assessed as inhibition of ADP-induced platelet aggregation; assay type: functional, cell-based
[15] = system: Adipocyte; assay: Effect on 2-deoxy-D-[1-3H]glucose transport in Sprague-Dawley rat adipocytes at 1 uM in presence of insulin by liquid scintillation counting; assay type: functional
[16] = Half life in rat at 5 mg/kg, po; assay type: ADME, organism-based; parameters: dose 5 mg/kg, route oral; details: in vivo
[17] = Volume of distribution in rat at 2.5 mg/kg, iv or 5 mg/kg, po; assay type: ADME, organism-based; details: in vivo
[18] = system: Mus musculus; assay: Reduction of plasma glucose level in fasted C57BL/6J mouse at 2.5 mg/kg, po administered daily for 3 days measured on day 5 by glucose oxidase trinder method; assay type: functional, organism-based; parameters: dose 2.5 mg/kg
[19] = system: Mus musculus; assay: Protection against collagen-epinephrine-induced mortality in Chinese Kunming cerebral thrombosis mouse model assessed as survival rate at 40 mg/kg, po administered once daily for 7 days measured on day 7 within 15 mins of collagen-epinephrine challenge; assay type: functional
[20] = Effect on insulin release in rat pancreatic cells at 1 umol/L after 6 hrs by radioimmunoassay; assay type: functional
[21] = Antiplatelet activity in human platelets assessed as inhibition of arachidonic acid-induced platelet aggregation; assay type: functional, cell-based
[22] = Effect on insulin release in rat pancreatic cells at 100 umol/L after 6 hrs by radioimmunoassay; assay type: functional
[23] = Increase in insulin release in rat pancreatic cells at 100 umol/L after 6 hrs by radioimmunoassay relative to basal level; assay type: functional
[24] = Oral bioavailability in rat at 5 mg/kg, po; assay type: ADME, organism-based; details: in vivo
[25] = system: Mus musculus; assay: Reduction of plasma glucose level in fasted C57BL/6J mouse at 7 mg/kg, po administered daily for 3 days measured on day 5 by glucose oxidase trinder method; assay type: functional, organism-based; parameters: dose 7 mg/kg
[26] = system: Rattus norvegicus; assay: AUC in rat at 5 mg/kg, po; assay type: ADME, organism-based, Plasma; parameters: dose 5 mg/kg, route oral; details: in vivo
[27] = Tmax in rat at 2.5 mg/kg, iv or 5 mg/kg, po; assay type: ADME, organism-based; details: in vivo

## CC1CCC(NC(=O)NS(=O)(=O)c2ccc(CCNS(=O)(=O)c3ccc(Br)cc3)cc2)CC1 (configuration not stated)
[1]
  Activity: 7979.94 disintegrations/minute
[2]
  Cmax: 3330 ng/mL
[3]
  Activity: 8486.79 disintegrations/minute
[4]
  Activity: 50%
[5]
  Activity: 65.21 uIU/ml
[6]
  Activity: 4871.74 disintegrations/minute
[7]
  Activity: 6512.65 disintegrations/minute
[8]
  Activity: 7674.84 disintegrations/minute
[9]
  survival at 10 mg/kg: 27.3%
[10]
  fold change (FC): 1.73
[11]
  survival at 20 mg/kg: 45.5%
[12]
  clearance: 6 mL/min
[13]
  half-life: 1.91 h
[14]
  IC50: 3000 nM
[15]
  Activity: 5996.43 disintegrations/minute
[16]
  half-life: 1.77 h
[17]
  Vd: 0.78 L/kg
[18]
  Activity: Active
[19]
  survival at 40 mg/kg: 72.7%
[20]
  Activity: 40.79 uIU/ml
[21]
  IC50: 210 nM
[22]
  Activity: 86.08 uIU/ml
[23]
  fold change (FC): 3.64
[24]
  bioavailability: 52.7%
[25]
  Activity: Active
[26]
  AUC: 10000 ng·h/mL
[27]
  Tmax: 0.83 h
